Among the data in patent US10519143B2, “Substituted-indole-compounds as estrogen receptor down-regulators” (LUOXIN PHARMACEUTICAL (SHANGHAI) CO., LTD, priority 2016, dated 2019) are IC50 values, retold here.

The first experiment concerns MCF-7 cells. Briefly: MCF-7 cell proliferation inhibition assay. The class given is cell-based. Particulars: Homo sapiens, MCF7, 144 h, read-out: anti-proliferation in MCF-7 cells (nM). The procedure:
Experimental Reagent: RPMI 1640 medium, fetal bovine serum, Promega CellTiter-Glo reagent. The cell line MCF-7 was purchased from The European Collection of Authenticated Cell Cultures (ECACC). Envision Multilabel Reader (PerkinElmer). Experimental Method: […] The cell plate was placed in a carbon dioxide incubator overnight. […] The cell plate was incubated in a carbon dioxide incubator for 6 days. Promega CellTiter-Glo reagent was added to the cell plate at 25 μL per well, cells were incubated for 10 minutes at room temperature to stabilize the luminescence signal, which was measured using PerkinElmer Envision Multilabel Reader. Data Analysis: […] (Model 205 in XLFIT5, iDBS)
On to `CC/C(=C(/c1ccc(OCCN2CC(CF)C2)cc1)c1cc2ccccc2[nH]1)c1ccc(F)cc1Cl` [II-1], for which the IC50 is 4.57 nM.
Still for that read-out and setting: with `CC/C(=C(\c1cc2ccccc2[nH]1)c1c(F)cc(/C=C/C(=O)O)cc1F)c1ccc(F)cc1Cl` [Compound I-57] the figure was 32 nM.
Same read-out and setting: with `CC/C(=C(/c1ccc(/C=C/C(=O)O)cc1)c1cc2ccccc2[nH]1)c1ccsc1C#N` [Compound I-18] the figure was 22 nM; with `CC/C(=C(/c1ccc(/C=C/C(=O)O)cc1)c1cc2ccccc2[nH]1)c1c(C)cccc1Cl` [Compound I-29], 30 nM; with `CC/C(=C(/c1ccc(/C=C/C(=O)O)cc1)c1cc2ccccc2[nH]1)c1ccc(F)cc1F` [Compound I-45], 103 nM.
The same measure, in the same setting: with `CC/C(=C(/c1ccc(/C=C/C(=O)O)cc1)c1cc2ccccc2[nH]1)c1cc(Cl)sc1Cl` [Compound I-17] the figure was 8.29 nM.

The same experiment, now with this note: Homo sapiens, MCF7, 144 h; MCF-7 cells, 6 days incubation, CellTiter-Glo; read-out: anti-proliferation in MCF-7 cells.
On to `CC/C(=C(/c1ccc(/C=C/C(=O)O)cc1)c1cc2ccccc2[nH]1)c1ccc(Cl)cc1C#N` [Compound I-21], for which the IC50 was 14 nM.
Still for that read-out and setting: with `CC/C(=C(/c1ccc(/C=C/C(=O)O)cc1)c1[nH]c2ccccc2c1Cl)c1ccc2c(c1)OCCO2` [Compound I-31] the figure was 3.66 nM; with `CC/C(=C(/c1ccc(/C=C/C(=O)O)cc1)c1[nH]c2ccccc2c1C#N)c1cc(Cl)sc1Cl` [Compound I-36], 6.84 nM; with `CC/C(=C(/c1ccc(/C=C/C(=O)O)cc1)c1cc2ccccc2[nH]1)c1ccc2c(c1)OCCO2` [Compound I-30], 48 nM.
The same measure, in the same setting: with `CC/C(=C(/c1ccc(/C=C/C(=O)O)cc1)c1cc2ccccc2[nH]1)c1ccc(C(F)(F)F)cc1Cl` [Compound I-13] the figure was 27 nM; with `CC/C(=C(/c1ccc(/C=C/C(=O)O)cc1)c1[nH]c2ccccc2c1Cl)c1ccc(Cl)cc1` [Compound I-24], 21.5 nM; with `CC/C(=C(/c1ccc(/C=C/C(=O)NS(C)(=O)=O)cc1)c1cc2ccccc2[nH]1)c1ccc(Cl)cc1C(F)(F)F` [Compound I-48], 4.88 nM.
The same measure, in the same setting: with `CC/C(=C(/c1ccc(/C=C/C(=O)O)cc1)c1[nH]c2ccccc2c1C#N)c1ccc(Cl)cc1Cl` [Compound I-53] the figure was 4.35 nM; with `CC/C(=C(/c1ccc(/C=C/C(=O)O)cc1)c1[nH]c2ccccc2c1Cl)c1ccccc1C(F)(F)F` [Compound I-10], 13 nM.
On to `CC/C(=C(/c1ccc(OCCN2CC(CF)C2)cc1)c1[nH]c2ccccc2c1Cl)c1ccc(F)cc1Cl` [II-5], for which the IC50 came out at 7.23 nM.
The same measure, in the same setting: the same measure for `CC/C(=C(/c1ccc(OCCN2CC(CF)C2)cc1)c1cc2ccccc2[nH]1)c1ccccc1C#N` [II-7]: 2.61 nM.
On the same count and under the same terms, with `CC/C(=C(/c1ccc(OCCN2CC(CC#N)C2)cc1)c1cc2ccccc2[nH]1)c1ccccc1Cl` [II-10] the figure was 3.92 nM; with `CC/C(=C(/c1ccc(/C=C/C(=O)O)cc1)c1cc2ccc(F)cc2[nH]1)c1ccc(F)cc1Cl` [Compound I-9], 167 nM; with `CC/C(=C(/c1ccc(/C=C/C(=O)O)cc1)c1[nH]c2ccccc2c1Cl)c1ccc(Cl)cc1C#N` [Compound I-22], 0.86 nM.
Same read-out and setting: the same measure for `CC/C(=C(/c1ccc(OCCN2CC(CC#N)C2)cc1)c1[nH]c2ccccc2c1Cl)c1ccc(F)cc1Cl` [II-8]: 5 nM.
For `CC/C(=C(/c1ccc(/C=C/C(=O)O)cc1)c1cc2ccccc2[nH]1)c1ccc(Cl)cc1C(F)(F)F` [Compound I-14], the IC50 worked out at 4.11 nM.
For `CC/C(=C(/c1ccc(/C=C/C(=O)O)cc1)c1[nH]c2ccccc2c1Cl)c1ccsc1C#N` [Compound I-15], the IC50 turned out to be 7.56 nM.
Same read-out and setting: the same measure for `CC/C(=C(/c1ccc(/C=C/C(=O)O)cc1)c1[nH]c2ccccc2c1Cl)c1ccc(Cl)cc1C(F)(F)F` [Compound I-44]: 5.84 nM; for `CC/C(=C(/c1ccc(/C=C/C(=O)O)cc1)c1[nH]c2ccccc2c1F)c1ccc(F)cc1Cl` [Compound I-40]: 2.31 nM; for `CC/C(=C(/c1ccc(/C=C/C(=O)O)cc1)c1cc2cnccc2[nH]1)c1ccc(F)cc1Cl` [Compound I-46]: 393 nM.
`CC/C(=C(/c1ccc(OCCN2CC(CC#N)C2)cc1)c1[nH]c2ccccc2c1Cl)c1ccc(Cl)cc1C#N` [II-12]: the IC50 was 1.56 nM.
Same read-out and setting: the same measure for `CC/C(=C(/c1ccc(/C=C/C(=O)O)cc1)c1cc2ccccc2[nH]1)c1ccc(Cl)cc1Cl` [Compound I-37]: 11 nM; for `CC/C(=C(/c1ccc(/C=C/C(=O)O)cc1)c1cc2ccccc2[nH]1)c1ccccc1Cl` [Compound I-51]: 9.24 nM; for `CC/C(=C(/c1ccc(/C=C/C(=O)O)cc1)c1[nH]c2ccccc2c1Cl)c1cc(Cl)sc1Cl` [Compound I-35]: 20 nM.
The same measure, in the same setting: the same measure for `CC/C(=C(/c1ccc(/C=C/C(=O)O)cc1)c1[nH]c2ccccc2c1Cl)c1ccc(Cl)nc1C#N` [Compound I-55]: 2.42 nM; for `CC/C(=C(/c1ccc(OCCN2CC(CF)C2)cc1)c1cc2cc(F)ccc2[nH]1)c1ccc(F)cc1Cl` [II-3]: 6.77 nM.
Turning to `CC/C(=C(/c1ccc(/C=C/C(=O)O)cc1)c1[nH]c2ccccc2c1Cl)c1ccc(Cl)c(C)c1` [Compound I-28], the IC50 was determined as 69 nM.
On the same count and under the same terms, the same measure for `CC(C)C/C(=C(/c1ccc(/C=C/C(=O)O)cc1)c1cc2ccccc2[nH]1)c1ccc(F)cc1Cl` [Compound I-27]: 8.36 nM; for `CC/C(=C(/c1ccc(/C=C/C(=O)O)cc1)c1[nH]c2ccccc2c1Cl)c1ccc(OC)cc1` [Compound I-33]: 2.86 nM.
Same read-out and setting: the same measure for `CC/C(=C(/c1ccc(/C=C/C(=O)O)cc1)c1cc2ccccc2[nH]1)c1cccs1` [Compound I-6]: 321 nM.
The same measure, in the same setting: with `CC/C(=C(/c1ccc(/C=C/C(=O)O)cc1)c1cc2ccccc2[nH]1)c1cccc(F)c1C#N` [Compound I-52] the figure was 40 nM; with `CC/C(=C(/c1ccc(/C=C/C(=O)O)cc1)c1[nH]c2ccccc2c1Br)c1ccccc1C(F)(F)F` [Compound I-11], 8.53 nM; with `CC/C(=C(/c1ccc(/C=C/C(=O)O)cc1)c1cc2ccccc2[nH]1)c1ccc(OC)cc1Cl` [Compound I-41], 3.91 nM.
For the compound `CC/C(=C(/c1ccc(OCCN2CC(CF)C2)cc1)c1cc2ccccc2[nH]1)c1ccccc1Cl` [II-6], the IC50 came out at 2.46 nM.
Same read-out and setting: the same measure for `CC/C(=C(/c1ccc(/C=C/C(=O)O)cc1)c1[nH]c2ccccc2c1C)c1cccc(C)c1` [Compound I-54]: 23 nM; for `CC/C(=C(\c1cc2ccccc2[nH]1)c1c(F)cc(OCCN2CC(CF)C2)cc1F)c1ccc(F)cc1Cl` [II-4]: 6.86 nM.
Same read-out and setting: with `CC/C(=C(/c1ccc(OCCN2CC(CC#N)C2)cc1)c1cc2ccccc2[nH]1)c1ccc(Cl)cc1C(F)(F)F` [II-9] the figure was 51 nM.
On the same count and under the same terms, the same measure for `CC/C(=C(/c1ccc(/C=C/C(=O)O)cc1)c1[nH]c2ccccc2c1Br)c1ccc(F)cc1Cl` [Compound I-7]: 9.52 nM; for `CC/C(=C(/c1ccc(/C=C/C(N)=O)cc1)c1cc2ccccc2[nH]1)c1ccc(Cl)cc1C(F)(F)F` [Compound I-47]: 4.27 nM.
For `CC/C(=C(/c1ccc(/C=C/C(=O)O)cc1)c1[nH]c2ccccc2c1C)c1ccc(F)cc1Cl` [Compound I-19], the IC50 is 4.78 nM.
With `CC/C(=C(/c1ccc(/C=C/C(=O)O)cc1)c1cc2ccccc2[nH]1)c1ccc(OC)cc1` [Compound I-32], the IC50 amounted to 61 nM.
Same read-out and setting: the same measure for `CC/C(=C(/c1ccc(OCCN2CC(CF)C2)cc1)c1cc2ccc(F)cc2[nH]1)c1ccc(F)cc1Cl` [II-2]: 7.75 nM; for `CC/C(=C(/c1ccc(/C=C/C(=O)O)cc1)c1cc2ccccc2[nH]1)c1ccc(F)cc1C(F)(F)F` [Compound I-12]: 13 nM.
As for `CC/C(=C(/c1ccc(/C=C/C(=O)O)cc1)c1cc2ccccc2[nH]1)c1cccc(C(F)(F)F)c1` [Compound I-4], the IC50 turned out to be 325 nM.
The same measure, in the same setting: the same measure for `CC/C(=C(/c1ccc(/C=C/C(=O)O)cc1)c1[nH]c2ccccc2c1Cl)c1ccc(F)cc1Cl` [Compound I-8]: 5.59 nM.
Same read-out and setting: the same measure for `CC/C(=C(/c1ccc(/C=C/C(=O)O)cc1)c1[nH]c2ccccc2c1C#N)c1ccc(OC)cc1Cl` [Compound I-42]: 0.77 nM; for `CC/C(=C(/c1ccc(/C=C/C(=O)O)cc1)c1[nH]c2ccccc2c1Cl)c1csc(C)c1` [Compound I-56]: 35 nM; for `CC/C(=C(/c1ccc(OCCN2CC(CC#N)C2)cc1)c1cc2ccccc2[nH]1)c1ccccc1C#N` [II-11]: 7.43 nM.
Still for that read-out and setting: the same measure for `CC/C(=C(/c1ccc(/C=C/C(=O)O)cc1)c1cc2ccccc2[nH]1)c1ccccc1OC(F)(F)F` [Compound I-3]: 206 nM; for `CC/C(=C(/c1ccc(/C=C/C(=O)O)cc1)c1[nH]c2ccccc2c1C#N)c1ccc(F)cc1Cl` [Compound I-23]: 4.84 nM; for `CC/C(=C(/c1ccc(/C=C/C(=O)O)cc1)c1cc2ccccc2[nH]1)c1ccccc1C(F)(F)F` [Compound I-5]: 8.04 nM.
For the compound `CC/C(=C(/c1ccc(/C=C/C(=O)O)cc1)c1cc2ccccc2[nH]1)c1cccc(OC(F)(F)F)c1` [Compound I-2], the IC50 came to 282 nM.
On the same count and under the same terms, with `CC/C(=C(/c1ccc(/C=C/C(=O)O)cc1)c1cc2ccccc2[nH]1)c1ccccc1C` [Compound I-50] the figure was 33 nM.
For `CC/C(=C(/c1ccc(/C=C/C(=O)O)cc1)c1[nH]c2ccccc2c1Cl)c1ccc(OC)cc1C#N` [Compound I-43], the IC50 came out at 1.56 nM.
Still for that read-out and setting: the same measure for `CC/C(=C(/c1ccc(/C=C/C(=O)O)cc1)c1cc2ccccc2[nH]1)c1ccccc1C#N` [Compound I-49]: 42 nM; for `CC/C(=C(/c1ccc(/C=C/C(=O)O)cc1)c1cc2ccccc2[nH]1)c1ccc(C#N)cc1Cl` [Compound I-34]: 49 nM.
